Data on twelve molecules can be found in US20120202794A1 (priority 2011, published 2012).

Molecules are shown by their SMILES.

In one series the test system is HCV Replicon 1b. As to the kind of experiment: HCV inhibition assay, HCV replicon 1b (Clone A or ET-lunet cells; RT-PCR or luciferase reporter). It is filed as cell-based. The note with it: Hepatitis C virus, 96 h, HCV replicon 1b; 4 days incubation; read-out: Replicon 1b potency EC90. In short, it runs like this: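 Inhibition read either as luciferase signal (ET replicon) or as HCV 5′-NTR RNA by RT-PCR relative to rRNA, % = (1−2^−ΔΔCt)×100, against DMSO controls, giving EC50 and EC90. Cells: Clone A or ET-lunet, seeded 1500 or 3000/well, exposed 4 days at 37 °C, 5% CO2, 0.5% DMSO.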

The nature of series [1]: Cell cytotoxicity assay (MTS), CC90 as reported in Table 1, cell line not stated. The series is classed as cell-based. The note with it: human; MTS assay; 8 days incubation; cell line not given. In short, it runs like this: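 MTS read-out (490 nm, 2 h dye step) after 8-day exposure at 37° C. Huh7, HepG2, BxPC3 were seeded at 2×10^3 and CEM at 5×10^3 cells/well, with compound serially diluted from 100 μM. CC90 comes from comparison with untreated control wells.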

As for `CC(C)C[C@H]1CN(C(=O)/C=C/c2ccc(Cl)cc2Cl)[C@@H](CC(C)C)C(=O)N1` [Compound 267, (3S,6S)-4-[3-(2,4-dichloro-phenyl)-acryloyl]-3,6-diisobutyl-piperazin-2-one], in the series on HCV Replicon 1b, the EC90 stood at 6.89 µM. The CC90 at 8 days in series [1] was more than 10 µM.
The like results for `CSc1ccc(/C=C/C(=O)N2C[C@H](CC(C)C)NC(=O)[C@@H]2CC(C)C)cc1` [Compound 268, (3S,6S)-3,6-diisobutyl-4-((E)-3-(4-methylsulfanyl-phenyl)acryloyl)piperazin-2-one] were, in that order, 9.8 µM and more than 10 µM.
As for `CC(C)C[C@H]1CN(C(=O)/C=C/c2ccc(C(C)(C)C)cc2)[C@@H](CC(C)C)C(=O)N1` [Compound 269, (3S,6S)-3,6-diisobutyl-4-((E)-3-(4-tert-butyl-phenyl)acryloyl)piperazin-2-one], the EC90 in the series on HCV Replicon 1b worked out at 8.9 µM. Further, the CC90 at 8 days in series [1] is more than 10 µM.
For the molecule `COC(=O)c1ccc(/C=C/C(=O)N2C[C@H](CC(C)C)NC(=O)[C@@H]2CC(C)C)cc1` [Compound 270, Methyl 4-((E)-3-((2S,5S)-2,5-diisobutyl-3-oxopiperazin-1-yl)-3-oxoprop-1-en-1-yl)-benzoate], the EC90 in the series with HCV Replicon 1b is more than 10 µM. In addition, the CC90 at 8 days in series [1] was more than 10 µM.
For `CC(C)C[C@H]1CN(C(=O)/C=C/c2c(F)cccc2F)[C@@H](CC(C)C)C(=O)N1` [Compound 271, (3S,6S)-4-[3-(2,6-Difluoro-phenyl)-acryloyl]-3,6-diisobutyl-piperazin-2-one], the concentration for an effect of 90% (EC90) in the series on HCV Replicon 1b is more than 10 µM. Further, the CC90 at 8 days in series [1] was more than 10 µM.
`CC(C)C[C@H]1CN(C(=O)c2cc(-c3ccc(Cl)cc3)cs2)[C@@H](CC(C)C)C(=O)N1` [Compound 272, (3S,6S)-4-(4-(4-chlorophenyl)thiophene-2-carbonyl)-3,6-diisobutylpiperazin-2-one]: the EC90 in the series on HCV Replicon 1b is 3.56 µM. Also, the CC90 at 8 days in series [1] is more than 10 µM.
Turning to `CC(C)C[C@H]1CN(C(=O)c2cc(-c3ccccc3Cl)on2)[C@@H](CC(C)C)C(=O)N1` [Compound 274, (3S,6S)-4-(5-(2-chlorophenyl)isoxazole-3-carbonyl)-3,6-diisobutylpiperazin-2-one], in the series with HCV Replicon 1b, the EC90 is 5.95 µM. The molecule further had a CC90 at 8 days in series [1] of more than 10 µM.
For `CC(C)C[C@H]1CN(C(=O)c2cc(-c3ccc(Cl)cc3Cl)on2)[C@@H](CC(C)C)C(=O)N1` [Compound 275, (3S,6S)-4-(5-(2,4-dichlorophenyl)isoxazole-3-carbonyl)-3,6-diisobutylpiperazin-2-one], the EC90 with HCV Replicon 1b is 6.31 µM. This molecule had a CC90 at 8 days in series [1] of more than 10 µM.
As to `CC(C)C[C@H]1CN(C(=O)c2cc(-c3ccc(Cl)c(Cl)c3)on2)[C@@H](CC(C)C)C(=O)N1` [Compound 276, (3S,6S)-4-(5-(3,4-Dichlorophenyl)isoxazole-3-carbonyl)-3,6-diisobutylpiperazin-2-one], the EC90 in the series with HCV Replicon 1b came out at 2.98 µM. The same molecule yielded a CC90 at 8 days in series [1] of more than 10 µM.
As for `CSc1ccc(-c2cc(C(=O)N3C[C@H](CC(C)C)NC(=O)[C@@H]3CC(C)C)no2)cc1` [Compound 277, (3S,6S)-3,6-diisobutyl-4-(5-(4-(methylthio)phenyl)isoxazole-3-carbonyl)piperazin-2-one], the 90% effect concentration (EC90) in the series with HCV Replicon 1b came to 5.84 µM. In series [1], this molecule displayed a CC90 at 8 days of more than 10 µM.
As to `CC(C)C[C@H]1CN(C(=O)Cc2cc(-c3ccc(F)cc3)on2)[C@@H](CC(C)C)C(=O)N1` [Compound 278, (3S,6S)-4-(2-(5-(4-fluorophenyl)isoxazol-3-yl)acetyl)-3,6-diisobutylpiperazin-2-one], the EC90 with HCV Replicon 1b was 7.89 µM. The CC90 at 8 days in series [1] is more than 10 µM.
Regarding `CC(C)C[C@H]1C(=O)N[C@@H](CC(C)(C)C)CN1C(=O)[C@@H]1C[C@H]1c1ccccc1` [Compound 280, (3S,6S)-3-isobutyl-6-neopentyl-4-((1R,2R)-2phenylcyclopropanecarbonyl)piperazin-2-one], in the series with HCV Replicon 1b, the EC90 came out at 8.65 µM. Further, in series [1], the CC90 at 8 days is more than 10 µM.
